Source: patent US7053057B2, “Caspase inhibitors and uses thereof” (Vertex Pharmaceuticals Incorporated, priority 2000, dated 2006)
Square brackets hold non-standard residues; d marks the D form. Peptide text beside a SMILES is read from it. * marks the point of attachment. Cbz = O=C(OCc1ccccc1)*; Thz = O=C(O)[CH]1CSCN1; CH2F = FC*

Columns and labels:
[1] = biological target: T1, recombinant, purified human Caspase-1 (Homo sapiens, UniProt P29466); assay: Caspase-1 enzyme inhibition assay (fluorogenic substrate cleavage); assay type: biochemical; conditions: second order rate constant of enzyme inactivation; substrate Acetyl-Tyr-Val-Ala-Asp-amino-4-methylcoumarin
T1 sequence (P29466 120-297 limits assumed): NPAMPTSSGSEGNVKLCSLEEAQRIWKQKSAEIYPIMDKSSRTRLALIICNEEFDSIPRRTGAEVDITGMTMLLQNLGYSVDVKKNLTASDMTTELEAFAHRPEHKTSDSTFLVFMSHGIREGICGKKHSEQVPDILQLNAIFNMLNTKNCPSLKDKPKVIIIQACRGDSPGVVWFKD
T1 sequence (P29466 317-404 limits assumed): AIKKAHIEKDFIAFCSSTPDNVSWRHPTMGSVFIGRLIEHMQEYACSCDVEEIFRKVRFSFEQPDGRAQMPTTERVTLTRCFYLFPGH
Excerpt: (§1) The assays for caspase inhibition are based on the cleavage of a fluorogenic substrate by recombinant, purified human Caspases -1, -3, or -8. The assays are run in essentially the same way as those reported by Garcia-Calvo et al. (J. Biol. Chem. 273 (1998), 32608–32613), using a substrate specific for each enzyme. The substrate for Caspase-1 is Acetyl-Tyr-Val-Ala-Asp-amino-4-methylcoumarin (SEQ ID NO:1). The substrate for Caspases -3, and -8 is Acetyl-Asp-Glu-Val-Asp-amino-4-methylcoumarin (SEQ ID NO:2).
(§2) The observed rate of enzyme inactivation at a particular inhibitor concentration, kobs, is computed by direct fits of the data to the equation derived by Thornberry et al. (Biochemistry 33 (1994), […]) using a nonlinear least-squares analysis computer program (PRISM 2.0; GraphPad software). To obtain the second order rate constant, kinact, kobs values are plotted against their respective inhibitor concentrations and kinact values are subsequently calculated by computerized linear regression.

[2] = biological target: recombinant, purified human Caspase-8 (Homo sapiens, UniProt Q14790); assay: Caspase-8 enzyme inhibition assay (fluorogenic substrate cleavage); assay type: biochemical; conditions: second order rate constant of enzyme inactivation; substrate Acetyl-Asp-Glu-Val-Asp-amino-4-methylcoumarin
Excerpt: as §1, §2

cortical neurons = assay: Hypoxia-induced apoptosis of cortical neurons assay; assay type: cell-based, Wistar rat; conditions: Cortical neurone; rat embryo cortical neurons, hypoxia 42 hours, DNA fragmentation ELISA
Description: Apoptosis can be induced by growth factor withdrawal and by hypoxia. This assay measures the extent of DNA fragmentation indicating the effectiveness of caspase inhibitors to prevent apoptosis. Experimental Procedure Cortical neurons were dissociated from Wistar rat embryos (E17) by a modification of the procedure of Rogers et al 1997, Brain Res Bulletin 44:131. Cerebral cortices were isolated aseptically from 15–20 Wistar rat embryos. A cell suspension was prepared by mincing the cerebral cortices and digesting them with papain. Cells were washed with ovomucoid enzyme inhibitor and DNaseI and plated onto Poly D lysine coated plates in high glucose DMEM containing 10% heat-inactivated foetal calf serum, L-glutamine, penicillin and streptomycin. The yield of neurons was 10^7 per embryo and they were 80–90% viable as assessed by Trypan blue exclusion.
Cells were seeded at 1×10^6 cells per cm^2 in 96-well plates and cultured in complete medium (in high glucose DMEM containing 10% heat-inactivated foetal calf serum, L-glutamine, penicillin and streptomycin) at 37° C. in a normal atmosphere for 48 hours prior to the hypoxia experiments. Hypoxia was performed as described (Tamatani et al.1998, Molecular Brain Research, 58:27). The normal cell medium was replaced by hypoxic medium and cells were incubated in an atmosphere of 95% N2/5% CO2 for 42 hours. For compound testing, compounds were dissolved in DMSO at 100 mM then diluted in medium and added to the culture at the beginning of the hypoxic period. Apoptosis was measured using an ELISA assay to detect DNA fragmentation (Roche). Controls included cells cultured in aerobic conditions in serum-containing medium.

[3] = system: IL-1β secretion from PBMC; assay: Inhibition of IL-1β secretion from mixed population of PBMC; assay type: cell-based; conditions: human PBMC, LPS 50 ng/ml, 16–18 h, mature IL-1β in supernatant
Description: Processing of pre-IL-1β by caspase-1 can be measured in cell culture using a variety of cell sources. Human PBMC obtained from healthy donors provides a mixed population of lymphocyte and mononuclear cells that produce a spectrum of interleukins and cytokines in response to many classes of physiological stimulators.
The test compound is dissolved in Dimethyl Sulphoxide (DMSO,Sigma #D-2650) to give a 100 mM stock solution. This is diluted in complete medium consisting of RPMI containing 10% heat inactivated FCS (Gibco BRL #10099-141), 2 mM L-Glutamine (Sigma, #G-7513), 100U penicillin and 100 μg/ml streptomycin (Sigma #P-7539). The final concentration range of test compound is from 100 μM down to 6 nM over eight dilution steps. The highest concentration of test compound is equivalent to 0.1% DMSO in the assay.
Human PBMC are isolated from Buffy Coats obtained from the blood bank using centrifugation on Ficoll-Paque leukocyte separation medium (Amersham, #17-1440-02) and the cellular assay is performed in a sterile 96 well flat-bottomed plate (Nunc). Each well contains 100 μl of the cell suspension, 1×10^5 cells, 50 µl of compound dilutions and 50 μl of LPS (Sigma #L-3012) at 50 ng/ml final concentration. Controls consist of cells +/−LPS stimulation and a serial dilution of DMSO diluted in the same way as compound. The plates are incubated for 16–18 h at 37° C. in 5% CO2 & 95% humidity atmosphere.
After 16–18 h the supernatants are harvested after centrifuging the plates at 100×g at 18° C. for 15 min and assayed for their IL-1β content. Measurement of mature IL-1[…] in the supernatant is performed using the Quantikine kits (R&D Systems) according to manufacturer's instructions. Mature IL-1β levels of about 600–1500 pg/ml are observed for PBMCs in positive control wells.
The inhibitory potency of the compounds can be represented by an IC50 value, which is the concentration of inhibitor at which 50% of the mature IL-1β is detected in the supernatant as compared to the positive controls.

[4] = biological target: T2, recombinant, purified human Caspase-3 (Homo sapiens, UniProt P42574); assay: Caspase-3 enzyme inhibition assay (fluorogenic substrate cleavage); assay type: biochemical; conditions: second order rate constant of enzyme inactivation; substrate Acetyl-Asp-Glu-Val-Asp-amino-4-methylcoumarin
T2 sequence (P42574 29-175 limits assumed): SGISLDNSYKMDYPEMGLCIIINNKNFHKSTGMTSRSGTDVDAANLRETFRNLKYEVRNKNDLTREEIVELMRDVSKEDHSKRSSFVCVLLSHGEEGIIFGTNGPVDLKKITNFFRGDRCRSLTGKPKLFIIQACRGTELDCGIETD
T2 sequence (P42574 176-277 limits assumed): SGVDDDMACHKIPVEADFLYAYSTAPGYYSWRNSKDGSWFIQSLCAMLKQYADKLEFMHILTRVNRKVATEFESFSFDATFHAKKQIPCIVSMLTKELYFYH
Excerpt: The assays for caspase inhibition are based on the cleavage of a fluorogenic substrate by recombinant, purified human Caspases -1, -3, or -8.
To obtain the second order rate constant, kinact, kobs values are plotted against their respective inhibitor concentrations and kinact values are subsequently calculated by computerized linear regression.

recombinant, purified human Caspase-8, sequence (Q14790 217-374 limits assumed): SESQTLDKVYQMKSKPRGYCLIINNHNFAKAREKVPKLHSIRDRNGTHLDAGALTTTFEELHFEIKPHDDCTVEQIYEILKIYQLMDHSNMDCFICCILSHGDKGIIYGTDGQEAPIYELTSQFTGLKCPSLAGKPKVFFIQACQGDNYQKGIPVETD
recombinant, purified human Caspase-8, sequence (Q14790 385-479 limits assumed): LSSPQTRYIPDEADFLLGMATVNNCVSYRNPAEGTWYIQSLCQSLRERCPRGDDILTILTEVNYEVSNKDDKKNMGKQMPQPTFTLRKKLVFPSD

| C-3 Kinact [4] | Compound | C-1 Kinact [1] | C-8 Kinact [2] | IC50 (cortical neurons) [nM] | IC50 [3] [nM] |
| --- | --- | --- | --- | --- | --- |
| – | CC(C)[C@H](NC(=O)OCc1ccc(Cl)cc1)C(=O)NC(CC(=O)O)C(=O)CF (stereo partly drawn) [4-ClCbz-Val-Asp-fmk] | 69 × 1000 M^−1s^−1 | 175 × 1000 M^−1s^−1 | 1980 | – |
| – | O=C(O)CC(NC(=O)C1CCCN1C(=O)OCc1ccccc1)C(=O)CF (stereo not drawn) [Cbz-Pro-Asp-fmk] (Cbz-Pro-Asp-CH2F; configuration not given here) | 7.5 × 1000 M^−1s^−1 | 15.5 × 1000 M^−1s^−1 | 2780 | > 10000 |
| – | O=C(O)CC(NC(=O)C1CSCN1C(=O)OCc1ccccc1)C(=O)CF (stereo not drawn) [Cbz-Thz-Asp-fmk] (Cbz-[Thz]-Asp-CH2F; configuration not given here) | 227.5 × 1000 M^−1s^−1 | 12 × 1000 M^−1s^−1 | 1560 | 2310 |
| 239.5 × 1000 M^−1s^−1 | O=C(O)CC(NC(=O)[C@@H]1CCc2ccccc2N1C(=O)OCc1ccccc1)C(=O)CF (stereo partly drawn) [Example 3, [3S/R,(2S)]-3-(1-Benzyloxycarbonyl-1,2,3,4-tetrahydro-quinolinyl-2-carboxamido)-5-fluoro-4-oxo-pentanoic acid] | 318 × 1000 M^−1s^−1 | 122 × 1000 M^−1s^−1 | – | 1150 |
| – | O=C(O)CC(NC(=O)[C@@H]1CCCCN1C(=O)OCc1cccc(Cl)c1)C(=O)CF (stereo partly drawn) [Example 5, [3S/R,(2S)]-3-(1-(3-Chlorobenzyloxycarbonyl)-2-piperidinecarboxamido)-5-fluoro-4-oxo-pentanoic acid] | – | – | – | 500 |
| – | O=C(O)CC(NC(=O)[C@@H]1CCCCN1C(=O)OCc1cc(Cl)ccc1Cl)C(=O)CF (stereo partly drawn) [Example 23, [3S/R,(2S)]-5-Fluoro-3-(1-(2,5-dichlorobenzyloxycarbonyl)-2-piperidinecarboxamido)-4-oxo-pentanoic acid] | – | – | 336 | – |
| 181 × 1000 M^−1s^−1 | O=C(O)CC(NC(=O)[C@@H]1CCCCN1C(=O)O[C@H](c1cccc(Cl)c1)C(F)(F)F)C(=O)CF (stereo partly drawn) [Example 34] | 518 × 1000 M^−1s^−1 | 839 × 1000 M^−1s^−1 | 463 | – |
